From US8044018B2, “Reagents and methods for smooth muscle therapies” (Arizona Board of Regents, priority 2008, dated 2011)
Non-standard residues stand in square brackets, D forms with d. No end group written: not given here. *: point of attachment. FITC = O=C1OC2(c3ccc(O)cc3Oc3cc(O)ccc32)c2ccc(NC(=S)*)cc21; Fmoc = O=C(OCC1c2ccccc2-c2ccccc21)*; pS = N[C@@H](COP(=O)(O)O)C(=O)O; βAla = NCCC(=O)O

Columns and labels:
[1] = system: bovine carotid artery smooth muscle; test: Muscle bath: serotonin pre-contracted strips of bovine carotid artery, denuded of endothelium; details: cumulative doses added every 10 minutes; n=5
Method: Transverse strips of bovine carotid artery smooth muscle, denuded of endothelium, were suspended in a muscle bath containing bicarbonate buffer (120 mM NaCl, 4.7 mM KCl, 1.0 mM MgSO4, 1.0 mM NaH2PO4, 10 mM glucose, 1.5 mM CaCl2, and 25 mM […], pH 7.4), equilibrated with 95% O2/5% CO2, at 37° C. at one gram of tension for 2 hours. The muscles were pre-contracted with serotonin ([…] for 10 minutes) and cumulative doses of FITC-phosphoHSP20-TAT, FITC-scrambled phosphoHSP20-TAT (FITC-NH2-β[…]*LWALGRPLA-COOH, open circles) (SEQ ID NO:305), or FITC-TAT (FITC-NH2-β[…], closed triangles) (SEQ ID NO:306) were added every 10 minutes. The force is depicted as a percentage of the maximal serotonin contraction (n=5, *=p<0.05 compared to 0 peptide added). Representative strips were fixed in 4% paraformaldehyde and examined under fluorescence microscopy (40× magnification).

[2] = system: Rat aortic smooth muscle cells; test: LPA-induced actin fiber formation, phalloidin staining and confocal microscopy; format: cell-based
Method: Rat aortic smooth muscle cells were treated with lyophosphatidic acid (LPA) in the presence and absence of FITC-TAT-pHSP20 (FITC-NH2-β[…]*APLPGLK-COOH, 50 uM) (SEQ ID NO:307) Lysophosphatidic acid (LPA) is a substance which promotes actin fiber formation.
The cells were fixed and stained with phalloidin and images were obtained with confocal microscopy. […] These studies confirm that HSP20 has a direct role in modulating actin fiber formation.

[3] = system: Mesangial cells; test: Wrinkle assay: mesangial cells on silicone substrata treated with phosphopeptide; format: cell-based; details: 50 μM peptide; plated 48 hours in serum; phase contrast microscopy; n=10
Method: Mesangial cells were plated on a silicone substrata in the presence of serum and after 48 hours the cells were treated with the FITC-TAT-HSP20 phosphopeptide (50 μM). The number of wrinkles under the cells was determined at the time points indicated using phase contrast microscopy (n=10, *=p<0.05 compared to time 0). Results of this Experiment are illustrated in FIG. 2.

[4] = system: A10 cells; test: Serum-induced proliferation, cell counts; format: cell-based; details: 50 μM in 10% FBS; 24 hours; serum starved 3 days beforehand
Method: A10 cells were serum starved for 3 days. The cells were then treated with media containing 10% fetal bovine serum, PTD-pHSP20 (NH2-βAYARRAAARQARAWLRRAS*APLPGLK-COOH (SEQ ID NO:307), or PTD-scrambled-pHSP20 (NH2-βAYARRAAARQARAPRKS*LWALGRPLA-COOH (SEQ ID NO:308) (50 μM). After 24 hours cell counts were performed. The number of cells per well in the serum starved plates averaged […] (+/−7.4) compared to 276+/−6.1 in wells containing 10% fetal bovine serum (FBS). In the presence of FBS, the phosphopeptide analogues of HSP20 containing a transduction domain inhibited of smooth muscle proliferation, 149+/−14.6 compared to transduction of the scrambled phosphopeptide analogue of HSP20 (242.3+/−15.3 cells/well). The results of these experiments are illustrated in FIG. 9.

[5] = system: Bovine aortic endothelial cells; test: Focal adhesion disassembly, interference reflection microscopy; format: cell-based; details: HSP20 peptides 10 uM for 30 minutes; serum starved one hour
Method: Bovine aortic endothelial cells were plated on glass coverslips (80K-100K cells) in DMEM plus 10% FBS over night (24 wells plate). The cells were serum starved (no serum) for one hour and incubated in the presence of the peptide analogues of HSP20 [NH2-βAYARRAAARQARAWLRRAS*APLPGLK-COOH-pHSP20 (10 uM) (SEQ ID NO:307) or scrambled analogues of HSP20 [NH2-βAYARRAAARQARAPRKS*LWALGRPLA-COOH-scHSP20 (10 uM)] (SEQ ID NO:308) for 30 minutes. The cells were fixed with 3% glutaraldehyde and the number of focal adhesions was detected with interference reflection microscopy. The Hep I peptide was used as a positive control. This peptide binds to the heparin binding site of thrombospondin in induces focal adhesion disassembly. […] The results are illustrated in FIG. 7.

[6] = system: rabbit aorta; test: Muscle bath: rabbit aorta rings pre-contracted with norepinephrine, endothelium not denuded; details: pre-contracted with norepinephrine 10^−7 M; for relaxation and inhibition of spasm: peptides retained the Fmoc moiety
Method: Rings of rabbit aorta in which the endothelium was not denuded, were suspended in a muscle bath containing bicarbonate buffer (120 mM NaCl, 4.7 mM KCl, 1.0 mM MgSO4, 1.0 mM NaH2PO4, 10 mM glucose, 1.5 mM CaCl2, and 25 mM […], pH 7.4), equilibrated with 95% O2/5% CO2, at 37° C. at one gram of tension for 2 hours. The rings were pre-contracted with norepinephrine (10^−7 M) and treated with RRRRRRApSAPLP (SEQ ID NO:309) or RRRRWLRRApSAPLP (SEQ ID NO:310). […] The peptides used were prepared by Fmoc-based peptide synthesis, and the peptides retained the Fmoc moiety at the amino terminus of the peptide.

FITC-NH2-βAGGGGYGRKKRRQRRR ({FITC}-[βAla]GGGGYGRKKRRQRRR) [FITC-TAT, FITC-labelled TAT transduction domain alone, control]
contractile force as percentage of the maximal serotonin contraction [1]: no significant effect

FITC-NH2-βAGGGGYGRKKRRQRRRPRKS*LWALGRPLA-COOH ({FITC}-[βAla]GGGGYGRKKRRQRRRPRK[pS]LWALGRPLA-OH) [FITC-scrambled phosphoHSP20-TAT]
contractile force as percentage of the maximal serotonin contraction [1]: no significant effect

Lysophosphatidic acid [LPA, reference compound]
actin stress fiber formation ([2]; LPA alone): robust actin stress fiber formation

NH2-βAGGGGYGRKKRRQRRRWLRRAS*APLPGLK-COOH ([βAla]GGGGYGRKKRRQRRRWLRRA[pS]APLPGLK-OH; not fully specified (N-terminus); printed as NH2-βAGGGGYGRKKRRQRRRWLRRAS*APLPGLK-COOH; also: FITC label, position not given here) [FITC-TAT-HSP20]
number of wrinkles under the cells (relaxation of the cells) [3]: time dependent loss of wrinkles | central actin stress fibers ([2]; LPA in the presence of peptide, 50 uM): loss of central actin stress fibers | contractile force as percentage of the maximal serotonin contraction [1]: dose dependent decrease

NH2-βAYARRAAARQARAPRKS*LWALGRPLA-COOH (AYARRAAARQARAPRKSLWALGRPLA; HELM PEPTIDE1{[bAla].Y.A.R.R.A.A.A.R.Q.A.R.A.P.R.K.[O=C([C@H](COP(=O)(O)O)N[*:1])[*:2]].L.W.A.L.G.R.P.L.A}$$$$V2.0; SMILES CC(C)C[C@H](NC(=O)[C@H](C)NC(=O)[C@H](Cc1c[nH]c2ccccc12)NC(=O)[C@H](CC(C)C)NC(=O)[C@H](COP(=O)(O)O)NC(=O)[C@H](CCCCN)NC(=O)[C@H](CCCNC(=N)N)NC(=O)[C@@H]1CCCN1C(=O)[C@H](C)NC(=O)[C@H](CCCNC(=N)N)NC(=O)[C@H](C)NC(=O)[C@H](CCC(N)=O)NC(=O)[C@H](CCCNC(=N)N)NC(=O)[C@H](C)NC(=O)[C@H](C)NC(=O)[C@H](C)NC(=O)[C@H](CCCNC(=N)N)NC(=O)[C@H](CCCNC(=N)N)NC(=O)[C@H](C)NC(=O)[C@H](Cc1ccc(O)cc1)NC(=O)CCN)C(=O)NCC(=O)N[C@@H](CCCNC(=N)N)C(=O)N1CCC[C@H]1C(=O)N[C@@H](CC(C)C)C(=O)N[C@@H](C)C(=O)O) [PTD-scrambled-pHSP20, Scrambled analogue of the HSP20 phosphopeptide with PTD, control, reference compound]
number of cells per well [4]: 242.3+/−15.3 cells/well | focal adhesion disassembly (number of focal adhesions) [5]: no significant effect

RRRRRRApSAPLP (Fmoc-RRRRRRA[pS]APLP)
speed and duration of relaxation compared with the longer peptides [6]: relaxation was faster and the muscles remained in a relaxed state for longer | relaxation and inhibition of spasm [6]: rapid and complete relaxation and inhibition of spasm

RRRRWLRRApSAPLP (Fmoc-RRRRWLRRA[pS]APLP)
speed and duration of relaxation compared with the longer peptides [6]: relaxation was faster and the muscles remained in a relaxed state for longer | relaxation and inhibition of spasm [6]: rapid and complete relaxation and inhibition of spasm
